For 55 compounds, EC50 results are on record in patent US12098151B2 (priority 2018, dated 2024).

By EC50 is commonly meant the concentration at which the effect is half-maximal.

Where two headings read alike, the source gives them in different places.

In experiment [1] the test system is Junin virus. The experiment can be described thus: microbe, parasite or virus in culture. In kind it is cell-based.
For experiment [2], the system named is LCMV. The experiment can be described thus: microbe, parasite or virus in culture. In kind it is cell-based, lymphocytic choriomeningitis virus (LCMV).
Setting [3] is: Mammarenavirus juninense, HEK-293T, 96 h.
Where [4] appears, read: Mammarenavirus choriomeningitidis, KB, 96 h.

With `O=C(O)c1cn2c(c(O)c1=O)C(=O)NC[C@@H]2C(c1ccccc1)c1ccccc1` [Compound I-053], the EC50 in experiment [1] (setting [3]) is 987 nM; in experiment [2] (setting [4]) it was 275 nM. Consider `O=C(O)c1cn2c(c(O)c1=O)C(=O)N(CC1CC1)C[C@@H]2C(c1ccccc1)c1ccccc1` [Compound I-028], for which the half-maximal effective concentration (EC50) was 40 nM in experiment [1] (setting [3]) and 13 nM in experiment [2] (setting [4]). The like results for `O=C(O)c1cn2c(c(O)c1=O)C(=O)N(CC1CCC1)CN2C1c2cccc(F)c2CCc2c(F)cccc21` [III-035] were, in that order, 9.6 nM and 7.2 nM. For the compound `O=C(O)c1cn2c(c(O)c1=O)C(=O)N1CCCO[C@@H]1[C@@H]2C(c1ccccc1)c1ccccc1` [Compound I-050], the half-maximal effective concentration (EC50) in experiment [1] (setting [3]) worked out at 640 nM. Regarding `O=C(O)c1cn2c(c(O)c1=O)C(=O)N(CC1CCCC1)CN2C1c2ccccc2CCc2ccccc21` [III-015], the 50% effective concentration (EC50) turned out to be 25 nM in experiment [1] (setting [3]) and 17 nM in experiment [2] (setting [4]).

Consider `CC(C)N1CN(Cc2ccccc2)n2cc(C(=O)O)c(=O)c(O)c2C1=O` [III-026], for which the EC50 in experiment [2] (setting [4]) is above 1000 nM.

As for `CN1CN(C2c3ccccc3CCc3ccccc32)n2cc(C(=O)O)c(=O)c(O)c2C1=O` [II-004], the EC50 in experiment [1] (setting [3]) came to 9.2 nM; in experiment [2] (setting [4]), 24 nM. Taken in the same sequence, the figures for `CC(C)N1CN(C2c3cc(F)c(F)cc3CCc3cc(F)c(F)cc32)n2cc(C(=O)O)c(=O)c(O)c2C1=O` [Compound I-074] were 50 nM and 48 nM. Taken in the same sequence, the figures for `O=C(O)c1cn2c(c(O)c1=O)C(=O)N(CC1CCOCC1)CN2C1c2ccccc2CCc2ccccc21` [III-007] were 16 nM and 14 nM.

Consider `COCCN1C[C@H](C(c2ccccc2)c2ccccc2)n2cc(C(=O)O)c(=O)c(O)c2C1=O` [Compound I-045], for which the values for the 50% effective concentration (EC50) in experiment [1] and in experiment [2] were 374 nM and 24 nM, respectively. In the case of `O=C(O)c1cn2c(c(O)c1=O)C(=O)N(CC1CC1)CN2C1c2cccc(F)c2CCc2c(F)cccc21` [III-034], the EC50 worked out at 4.5 nM in experiment [1] (setting [3]) and 3.5 nM in experiment [2] (setting [4]). The like results for `O=C(O)c1cn2c(c(O)c1=O)C(=O)N(C(C1CC1)C1CC1)CN2C1c2ccccc2CCc2ccccc21` [III-017] were, in that order, 4.9 nM and 4.4 nM. `O=C(O)c1cn2c(c(O)c1=O)C(=O)N(CC1CCCCC1)CN2C1c2ccccc2CCc2ccccc21` [III-012]: the figures for the EC50 in experiment [1] (setting [3]) and in experiment [2] (setting [4]) were 21 nM and 38 nM, respectively. In the case of `CCCC(C)N1C[C@H](C(c2ccccc2)c2ccccc2)n2cc(C(=O)O)c(=O)c(O)c2C1=O` (stereo partly shown) [Compound I-031], the figures for the concentration for a half-maximal effect (EC50) in experiment [1] (setting [3]) and in experiment [2] (setting [4]) were 45 nM and 20 nM, respectively. The like results for `CC(C)N1CN(C2c3ccc(Cl)cc3CCc3cc(Cl)ccc32)n2cc(C(=O)O)c(=O)c(O)c2C1=O` [III-025] were, in that order, 31 nM and 17 nM. With `COCCN1C[C@H](CC2CCCCC2)n2cc(C(=O)O)c(=O)c(O)c2C1=O` [Compound I-056], in experiment [1] (setting [3]), the concentration giving a half-maximal response (EC50) was found to be 2030 nM.

`Cc1cccc2c1CCc1c(C)cccc1C2N1CN(C(C2CC2)C2CC2)C(=O)c2c(O)c(=O)c(C(=O)O)cn21` [III-032]: the figures for the 50% effective concentration (EC50) in experiment [1] (setting [3]) and in experiment [2] (setting [4]) were 17 nM and 28 nM, respectively. The like results for `O=C(O)c1cn2c(c(O)c1=O)C(=O)N(C[C@@H]1CCCO1)CN2C1c2ccccc2CCc2ccccc21` [II-002] were, in that order, 12 nM and 7.1 nM. Taken in the same sequence, the figures for `CN1C[C@H](C2c3ccccc3CSc3ccccc32)n2cc(C(=O)O)c(=O)c(O)c2C1=O` (stereo partly shown) [Compound I-029] were 42 nM and below 31 nM.

Consider `O=C(O)c1cn2c(c(O)c1=O)C(=O)N(C1CC1)CN2C1c2ccccc2CCc2ccccc21` [II-001], for which the 50% effective concentration (EC50) was 4.5 nM in experiment [1] (setting [3]) and 8.1 nM in experiment [2] (setting [4]). Taken in the same sequence, the figures for `Cc1cccc2c1CCc1c(C)cccc1C2N1CN(C(C)C)C(=O)c2c(O)c(=O)c(C(=O)O)cn21` [Compound I-075] were 1.7 nM and 3.1 nM. On to `CC(C)=CCN1C[C@H](C(c2ccccc2)c2ccccc2)n2cc(C(=O)O)c(=O)c(O)c2C1=O` [Compound I-024], for which the values for the 50% effective concentration (EC50) in experiment [1] (setting [3]) and in experiment [2] (setting [4]) were 12 nM and 14 nM, respectively. In the case of `O=C(O)c1cn2c(c(O)c1=O)C(=O)N(Cc1ccc(F)cc1F)C[C@@H]2C(c1ccccc1)c1ccccc1` [Compound I-020], the EC50 in experiment [1] (setting [3]) was 7.1 nM; in experiment [2] (setting [4]), 5.9 nM.

As for `Cc1cc(CN2C[C@H](C(c3ccccc3)c3ccccc3)n3cc(C(=O)O)c(=O)c(O)c3C2=O)no1` [Compound I-027], the concentration for a half-maximal effect (EC50) was found to be 19 nM in experiment [1] (setting [3]) and 9.4 nM in experiment [2] (setting [4]). Regarding `CCC(C)N1C[C@H](C(c2ccccc2)c2ccccc2)n2cc(C(=O)O)c(=O)c(O)c2C1=O` (stereo partly shown) [Compound I-033], the concentration for a half-maximal effect (EC50) in experiment [1] (setting [3]) came to 68 nM; in experiment [2] (setting [4]), 15 nM. Taken in the same sequence, the figures for `CC(C)N1CN(Cc2ccccc2CCc2ccccc2)n2cc(C(=O)O)c(=O)c(O)c2C1=O` [III-005] were 243 nM and 90 nM. Consider `COCCN1C[C@H](C(c2ccccc2)c2ccccc2)n2cc(NC(=O)OC)c(=O)c(O)c2C1=O` [Compound I-012], for which the EC50 in experiment [1] (setting [3]) was 3000 nM. `O=C(O)c1cn2c(c(O)c1=O)C(=O)N(CC1CCCCO1)C[C@@H]2C(c1ccccc1)c1ccccc1` (stereo partly shown) [Compound I-026]: the EC50 in experiment [1] (setting [3]) came out at 17 nM; in experiment [2] (setting [4]), 6.9 nM. On to `O=C(O)c1cn2c(c(O)c1=O)C(=O)N1CCCO[C@H]1[C@@H]2Cc1ccccc1` [Compound I-062], for which the EC50 in experiment [2] (setting [4]) is 2410 nM. Take `CC(C)N1CN(C2c3cccc(F)c3CCc3c(F)cccc32)n2cc(C(=O)O)c(=O)c(O)c2C1=O` [Compound I-077]: the half-maximal effective concentration (EC50) in experiment [1] (setting [3]) was found to be 1.8 nM; in experiment [2] (setting [4]), 3.3 nM. For the compound `COCCN1C(=O)c2c(O)c(=O)c(C(=O)O)cn2C[C@H]1C(c1ccccc1)c1ccccc1` [Compound I-036], the 50% effective concentration (EC50) in experiment [1] (setting [3]) was found to be 74 nM; in experiment [2] (setting [4]), 69 nM. Consider `CC(C)N1CN(C2c3ccc(F)cc3CCc3cc(F)ccc32)n2cc(C(=O)O)c(=O)c(O)c2C1=O` [III-023], for which the concentration giving a half-maximal response (EC50) was found to be 17 nM in experiment [1] (setting [3]) and 14 nM in experiment [2] (setting [4]). Taken in the same sequence, the figures for `O=C(O)c1cn2c(c(O)c1=O)C(=O)N(CC1CC1)CN2C(c1cccc(-c2ccccc2)c1)c1cccc(-c2ccccc2)c1` [III-030] were 18 nM and 78 nM. As to `O=C(O)c1cn2c(c(O)c1=O)C(=O)N(C(C1CC1)C1CC1)CN2C1c2ccccc2CSc2ccccc21` (stereo not shown) [III-029], the EC50 in experiment [1] was 182 nM; in experiment [2], 63 nM. In the case of `O=C(O)c1cn2c(c(O)c1=O)C(=O)N(Cc1ccc(F)cc1Cl)CN2C1c2ccccc2CCc2ccccc21` [III-009], the figures for the EC50 in experiment [1] (setting [3]) and in experiment [2] (setting [4]) were 19 nM and 37 nM, respectively.

For the compound `C[C@@H](N1CN([C@H]2c3ccccc3CSc3ccccc32)n2cc(C(=O)O)c(=O)c(O)c2C1=O)C(F)(F)F` [Compound I-004], the values for the EC50 in experiment [1] (setting [3]) and in experiment [2] (setting [4]) were 15 nM and 12 nM, respectively. Taken in the same sequence, the figures for `O=C(O)c1cn2c(c(O)c1=O)C(=O)N(Cc1cccnc1)C[C@@H]2C(c1ccccc1)c1ccccc1` [Compound I-030] were 44 nM and 31 nM. The like results for `O=C(O)c1cn2c(c(O)c1=O)C(=O)N(Cc1cccc(Cl)c1F)C[C@@H]2C(c1ccccc1)c1ccccc1` [Compound I-023] were, in that order, 11 nM and 2.2 nM. For `CCN1CN(C(c2ccccc2)c2ccccc2)n2c(C)c(C(=O)O)c(=O)c(O)c2C1=O` [Compound I-072], the EC50 in experiment [1] (read-out: EC50) worked out at 14 nM. As for `CC(C)N1CN(C2c3ccccc3C=Cc3ccccc32)n2cc(C(=O)O)c(=O)c(O)c2C1=O` [III-002], the half-maximal effective concentration (EC50) in experiment [1] (setting [3]) is 4.4 nM; in experiment [2] (setting [4]), 11 nM. The compound `CCN(CC)CCN1CN(C2c3ccccc3CCc3ccccc32)n2cc(C(=O)O)c(=O)c(O)c2C1=O` [III-022] came in with an EC50 in experiment [2] (setting [4]) above 1000 nM. On to `CCN1CN(Cc2ccc(-c3ccccc3OC)s2)n2c(C)c(C(=O)O)c(=O)c(O)c2C1=O` [Compound I-073], for which, in experiment [1] (read-out: EC50), the EC50 was found to be 65 nM. Take `CC1N(C)C(=O)c2c(O)c(=O)c(C(=O)O)cn2N1C(c1ccccc1)c1ccccc1` (stereo not shown) [Compound I-006]: the EC50 was found to be 36 nM in experiment [1] (setting [3]) and 136 nM in experiment [2] (setting [4]). `CC(C)N1CN(C2c3ccccc3CSc3ccccc32)n2cc(C(=O)O)c(=O)c(O)c2C1=O` (stereo not shown) [III-020]: the figures for the EC50 in experiment [1] and in experiment [2] were above 200 nM and 121 nM, respectively.

`O=C(O)c1cn2c(c(O)c1=O)C(=O)N(CCOc1ccc(F)cc1)C[C@@H]2C(c1ccccc1)c1ccccc1` [Compound I-048]: the concentration giving a half-maximal response (EC50) in experiment [1] (setting [3]) came out at 518 nM; in experiment [2] (setting [4]), 56 nM.

With `CN1C(=O)c2c(O)c(=O)c(C(=O)O)cn2C[C@H]1C(c1ccccc1)c1ccccc1` [Compound I-042], the values for the EC50 in experiment [1] (setting [3]) and in experiment [2] (setting [4]) were 255 nM and 58 nM, respectively. Turning to `O=C(O)c1cn2c(c(O)c1=O)C(=O)N(CC(F)(F)F)C[C@@H]2C(c1ccccc1)c1ccccc1` [Compound I-049], the concentration for a half-maximal effect (EC50) in experiment [1] (setting [3]) was 620 nM; in experiment [2] (setting [4]), 160 nM. Consider `CCN1CN(C2c3ccccc3CCc3ccccc32)n2nc(C(=O)O)c(=O)c(O)c2C1=O` [III-019], for which the half-maximal effective concentration (EC50) in experiment [1] (setting [3]) was determined as 72 nM; in experiment [2] (setting [4]) it was 39 nM. The like results for `Cc1cccc2c1CCc1c(C)cccc1C2N1CN(CC2CCC2)C(=O)c2c(O)c(=O)c(C(=O)O)cn21` [III-033] were, in that order, 6.4 nM and 8.8 nM. `O=C(O)c1cn2c(c(O)c1=O)C(=O)N1CCCO[C@H]1[C@@H]2C(c1ccccc1)c1ccccc1` [Compound I-047]: the half-maximal effective concentration (EC50) came out at 414 nM in experiment [1] (setting [3]) and 372 nM in experiment [2] (setting [4]). `O=C(O)CN1C[C@H](C(c2ccccc2)c2ccccc2)n2cc(C(=O)O)c(=O)c(O)c2C1=O` [Compound I-063]: a half-maximal effect in experiment [2] (setting [4]) (EC50) was put at 280 nM.

For the compound `CCOC(=O)c1cn2c(c(O)c1=O)C(=O)N(CCOC)C[C@@H]2C(c1ccccc1)c1ccccc1` [Compound I-066], a half-maximal response in experiment [2] (setting [4]) (EC50) required 250 nM. As to `CC(C)N1CC(Cc2ccccc2)n2cc(C(=O)O)c(=O)c(O)c2C1=O` (stereo not shown) [Compound I-055], the EC50 in experiment [1] (setting [3]) worked out at 1870 nM. In experiment [1] (setting [3]), `O=C(O)c1cn2c(c(O)c1=O)C(=O)N(Cc1ccc(F)cc1)CN2Cc1ccc(-c2ccccc2)cc1` [Compound I-052] yielded a half-maximal effective concentration (EC50) of 751 nM. In the case of `O=C(O)c1cn2c(c(O)c1=O)C(=O)N[C@H](C(c1ccccc1)c1ccccc1)C2` [Compound I-059], in experiment [2] (setting [4]), the EC50 was determined as 772 nM.
